{
  "source": "patent US20260345619A1",
  "about": "(Principia Biopharma Inc., priority 2023, published 2026)",
  "test": "Asthma Quality of Life Questionnaire with Standardized Activities (AQLQ(S))",
  "format": "in vivo, human",
  "details": "mITT",
  "source_text": "The AQLQ(S) is a self-administered patient reported outcome to measure the functional impairments that are most troublesome to adolescents and adults ≥12 years of age as a result of their asthma.\nAsthma Quality of Life Questionnaire with Standardized Activities (AQLQ(S)) self-administered (≥12 years)\nThe AQLQ(S) was designed as a self-administered patient reported outcome to measure the functional impairments that are most troublesome to adolescents and adults ≥12 years of age as a result of their asthma. The instrument is comprised of 32 items, each rated on a 7-point Likert scales from 1 to 7. The AQLQ(S) has 4 domains. The domains and the number of items in each domain are as follows: • Symptoms (12 items) • Activity limitation (11 items) • Emotional function (5 items) • Environmental stimuli (4 items)\nA global score is calculated ranging from 1 to 7 and a score by domain. Higher scores indicate better quality of life. […] Patients were to complete the questionnaire in an electronic diary during on-site visits.\nSecondary endpoints included pre-bronchodilator FEV1 change from baseline at EOT, ACQ-5 score change from baseline, and AQLQ score change from baseline. Other secondary and exploratory endpoints are described in Table 2.",
  "data": [
    {"smiles": "CC(C)(C=C(C#N)C(=O)N1CCC[C@@H](n2nc(-c3ccc(Oc4ccccc4)cc3F)c3c(N)ncnc32)C1)N1CCN(C2COC2)CC1", "note": "(mixture of isomers) [rilzabrutinib, (R)-2-[3-[4-amino-3-(2-fluoro-4-phenoxy-phenyl)pyrazolo[3,4-d]pyrimidin-1-yl]piperidine-1-carbonyl]-4-methyl-4-[4-(oxetan-3-yl)piperazin-1-yl]pent-2-enenitrile]", "values": [
      {"measurement": "AQLQ(S) Global score, Mean", "setting": "Week 8, 400 mg TID", "value": 5.27},
      {"measurement": "AQLQ(S) Global score, Median", "setting": "Week 8, 400 mg TID", "value": 5.06},
      {"measurement": "AQLQ(S) Global score, change from baseline, LS Mean", "setting": "Week 8, 400 mg TID", "value": 0.42},
      {"measurement": "AQLQ(S) Global score, change from baseline, Mean", "setting": "Week 8, 400 mg TID", "value": 0.29},
      {"measurement": "AQLQ(S) Global score, change from baseline, Median", "setting": "Week 8, 400 mg TID", "value": 0.34},
      {"measurement": "AQLQ(S) Symptoms score, Mean", "setting": "Week 8, 400 mg TID", "value": 5.29},
      {"measurement": "AQLQ(S) Symptoms score, Median", "setting": "Week 8, 400 mg TID", "value": 5.17},
      {"measurement": "AQLQ(S) Symptoms score, change from baseline, LS Mean", "setting": "Week 8, 400 mg TID", "value": 0.44},
      {"measurement": "AQLQ(S) Symptoms score, change from baseline, Mean", "setting": "Week 8, 400 mg TID", "value": 0.29},
      {"measurement": "AQLQ(S) Symptoms score, change from baseline, Median", "setting": "Week 8, 400 mg TID", "value": 0.38},
      {"measurement": "AQLQ(S) Symptoms score, change from baseline, LS Mean Diff vs. placebo", "setting": "Week 8, 400 mg TID, 95% CI −0.16, 0.43", "value": 0.13},
      {"measurement": "AQLQ(S) Global score, change from baseline, LS Mean Diff vs. placebo", "setting": "Week 8, 400 mg TID, 95% CI −0.18, 0.37", "value": 0.10},
      {"measurement": "AQLQ(S) Activity limitation score, change from baseline, LS Mean Diff vs. placebo", "setting": "Week 8, 400 mg TID, 95% CI −0.18, 0.38", "value": 0.10},
      {"measurement": "AQLQ(S) Emotional function score, change from baseline, LS Mean Diff vs. placebo", "setting": "Week 8, 400 mg TID, 95% CI −0.20, 0.45", "value": 0.13},
      {"measurement": "AQLQ(S) Environmental stimuli score, change from baseline, LS Mean Diff vs. placebo", "setting": "Week 8, 400 mg TID, 95% CI −0.34, 0.47", "value": 0.06},
      {"measurement": "AQLQ(S) Activity limitation score, Mean", "setting": "Week 12, 400 mg BID", "value": 5.66},
      {"measurement": "AQLQ(S) Activity limitation score, Median", "setting": "Week 12, 400 mg BID", "value": 5.82},
      {"measurement": "AQLQ(S) Activity limitation score, change from baseline, LS Mean", "setting": "Week 12, 400 mg BID", "value": 0.77},
      {"measurement": "AQLQ(S) Activity limitation score, change from baseline, Mean", "setting": "Week 12, 400 mg BID", "value": 0.85},
      {"measurement": "AQLQ(S) Activity limitation score, change from baseline, Median", "setting": "Week 12, 400 mg BID", "value": 0.45},
      {"measurement": "AQLQ(S) Emotional function score, Mean", "setting": "Week 12, 400 mg BID", "value": 5.96},
      {"measurement": "AQLQ(S) Emotional function score, Median", "setting": "Week 12, 400 mg BID", "value": 6.20},
      {"measurement": "AQLQ(S) Emotional function score, change from baseline, LS Mean", "setting": "Week 12, 400 mg BID", "value": 0.97},
      {"measurement": "AQLQ(S) Emotional function score, change from baseline, Mean", "setting": "Week 12, 400 mg BID", "value": 0.72},
      {"measurement": "AQLQ(S) Emotional function score, change from baseline, Median", "setting": "Week 12, 400 mg BID", "value": 0.40},
      {"measurement": "AQLQ(S) Environmental stimuli score, Mean", "setting": "Week 12, 400 mg BID", "value": 5.34},
      {"measurement": "AQLQ(S) Environmental stimuli score, change from baseline, LS Mean", "setting": "Week 12, 400 mg BID", "value": 0.70},
      {"measurement": "AQLQ(S) Environmental stimuli score, change from baseline, Mean", "setting": "Week 12, 400 mg BID", "value": 0.87},
      {"measurement": "AQLQ(S) Environmental stimuli score, change from baseline, Median", "setting": "Week 12, 400 mg BID", "value": 0.50},
      {"measurement": "AQLQ(S) Global score, Mean", "setting": "Week 12, 400 mg BID", "value": 5.75},
      {"measurement": "AQLQ(S) Global score, Median", "setting": "Week 12, 400 mg BID", "value": 5.72},
      {"measurement": "AQLQ(S) Global score, change from baseline, LS Mean", "setting": "Week 12, 400 mg BID", "value": 0.82},
      {"measurement": "AQLQ(S) Global score, change from baseline, Mean", "setting": "Week 12, 400 mg BID", "value": 0.84},
      {"measurement": "AQLQ(S) Global score, change from baseline, Median", "setting": "Week 12, 400 mg BID", "value": 0.69},
      {"measurement": "AQLQ(S) Symptoms score, Mean", "setting": "Week 12, 400 mg BID", "value": 5.87},
      {"measurement": "AQLQ(S) Symptoms score, Median", "setting": "Week 12, 400 mg BID", "value": 5.92},
      {"measurement": "AQLQ(S) Symptoms score, change from baseline, LS Mean", "setting": "Week 12, 400 mg BID", "value": 0.84},
      {"measurement": "AQLQ(S) Symptoms score, change from baseline, Mean", "setting": "Week 12, 400 mg BID", "value": 0.87},
      {"measurement": "AQLQ(S) Symptoms score, change from baseline, Median", "setting": "Week 12, 400 mg BID", "value": 0.83},
      {"measurement": "AQLQ(S) Environmental stimuli score, change from baseline, LS Mean Diff vs. placebo", "setting": "Week 12, 400 mg BID, 95% CI 0.06, 1.49", "value": 0.78},
      {"measurement": "AQLQ(S) Emotional function score, change from baseline, LS Mean Diff vs. placebo", "setting": "Week 12, 400 mg BID, 95% CI 0.12, 1.36", "value": 0.74},
      {"measurement": "AQLQ(S) Symptoms score, change from baseline, LS Mean Diff vs. placebo", "setting": "Week 12, 400 mg BID, 95% CI 0.22, 1.11", "value": 0.67},
      {"measurement": "AQLQ(S) Global score, change from baseline, LS Mean Diff vs. placebo", "setting": "Week 12, 400 mg BID, 95% CI 0.25, 1.18", "value": 0.72},
      {"measurement": "AQLQ(S) Activity limitation score, change from baseline, LS Mean Diff vs. placebo", "setting": "Week 12, 400 mg BID, 95% CI 0.28, 1.28", "value": 0.78},
      {"measurement": "AQLQ(S) Activity limitation score, Mean", "setting": "Week 12, 400 mg TID", "value": 5.45},
      {"measurement": "AQLQ(S) Activity limitation score, Median", "setting": "Week 12, 400 mg TID", "value": 5.36},
      {"measurement": "AQLQ(S) Activity limitation score, change from baseline, LS Mean", "setting": "Week 12, 400 mg TID", "value": 0.62},
      {"measurement": "AQLQ(S) Activity limitation score, change from baseline, Mean", "setting": "Week 12, 400 mg TID", "value": 0.50},
      {"measurement": "AQLQ(S) Activity limitation score, change from baseline, Median", "setting": "Week 12, 400 mg TID", "value": 0.55},
      {"measurement": "AQLQ(S) Emotional function score, Mean", "setting": "Week 12, 400 mg TID", "value": 5.57},
      {"measurement": "AQLQ(S) Emotional function score, Median", "setting": "Week 12, 400 mg TID", "value": 5.60},
      {"measurement": "AQLQ(S) Emotional function score, change from baseline, LS Mean", "setting": "Week 12, 400 mg TID", "value": 0.53},
      {"measurement": "AQLQ(S) Emotional function score, change from baseline, Mean", "setting": "Week 12, 400 mg TID", "value": 0.43},
      {"measurement": "AQLQ(S) Emotional function score, change from baseline, Median", "setting": "Week 12, 400 mg TID", "value": 0.40},
      {"measurement": "AQLQ(S) Environmental stimuli score, Mean", "setting": "Week 12, 400 mg TID", "value": 5.08},
      {"measurement": "AQLQ(S) Environmental stimuli score, change from baseline, LS Mean", "setting": "Week 12, 400 mg TID", "value": 0.54},
      {"measurement": "AQLQ(S) Environmental stimuli score, change from baseline, Mean", "setting": "Week 12, 400 mg TID", "value": 0.46},
      {"measurement": "AQLQ(S) Environmental stimuli score, change from baseline, Median", "setting": "Week 12, 400 mg TID", "value": 0.50},
      {"measurement": "AQLQ(S) Global score, Mean", "setting": "Week 12, 400 mg TID", "value": 5.41},
      {"measurement": "AQLQ(S) Global score, Median", "setting": "Week 12, 400 mg TID", "value": 5.23},
      {"measurement": "AQLQ(S) Global score, change from baseline, LS Mean", "setting": "Week 12, 400 mg TID", "value": 0.57},
      {"measurement": "AQLQ(S) Global score, change from baseline, Mean", "setting": "Week 12, 400 mg TID", "value": 0.46},
      {"measurement": "AQLQ(S) Global score, change from baseline, Median", "setting": "Week 12, 400 mg TID", "value": 0.53},
      {"measurement": "AQLQ(S) Symptoms score, Mean", "setting": "Week 12, 400 mg TID", "value": 5.41},
      {"measurement": "AQLQ(S) Symptoms score, Median", "setting": "Week 12, 400 mg TID", "value": 5.25},
      {"measurement": "AQLQ(S) Symptoms score, change from baseline, LS Mean", "setting": "Week 12, 400 mg TID", "value": 0.59},
      {"measurement": "AQLQ(S) Symptoms score, change from baseline, Mean", "setting": "Week 12, 400 mg TID", "value": 0.44},
      {"measurement": "AQLQ(S) Symptoms score, change from baseline, Median", "setting": "Week 12, 400 mg TID", "value": 0.58},
      {"measurement": "AQLQ(S) Activity limitation score, change from baseline, LS Mean Diff vs. placebo", "setting": "Week 12, 400 mg TID, 95% CI 0.02, 0.60", "value": 0.31},
      {"measurement": "AQLQ(S) Global score, change from baseline, LS Mean Diff vs. placebo", "setting": "Week 12, 400 mg TID, 95% CI −0.01, 0.60", "value": 0.29},
      {"measurement": "AQLQ(S) Symptoms score, change from baseline, LS Mean Diff vs. placebo", "setting": "Week 12, 400 mg TID, 95% CI −0.01, 0.68", "value": 0.34},
      {"measurement": "AQLQ(S) Emotional function score, change from baseline, LS Mean Diff vs. placebo", "setting": "Week 12, 400 mg TID, 95% CI −0.08, 0.72", "value": 0.32},
      {"measurement": "AQLQ(S) Environmental stimuli score, change from baseline, LS Mean Diff vs. placebo", "setting": "Week 12, 400 mg TID, 95% CI −0.23, 0.57", "value": 0.17}
    ]}
  ]
}
